Source: ChEMBL document CHEMBL1201862, “PubChem BioAssay data set” (2004)
Calls of active or inactive are those of the source.

What was measured:
[1] = luciferase reporter signal suppression in cells – H4 neuroglioma cells, luminescence, dose response (AID 1990); assay type: functional, cell-based
[2] = test system: Streptococcus sp. 'group A'; experiment: Streptococcus pyogenes SK(-)GAS viability under kanamycin – luminescence, BacTiterGlo, confirmation, counter-screen for streptokinase expression inhibitor project, dose response (AID 1900); assay type: functional, organism-based
[3] = Luminescence Cell-Based Dose Response HTS to Identify Inhibitors of 5'UTR Stem-Loop Driven Prion Protein mRNA Translation in H4 Neuroglioblastoma Cells. [Related pubchem assays: 1827 (Project Summary), 1813 (Primary HTS)]; assay type: functional
[4] = alpha-synuclein stem-loop luciferase translation blockers – H4 neuroglioma cells, luminescence, confirmation (AID 1988); assay type: functional, cell-based
[5] = biological target: T1, Streptokinase A (Streptococcus pyogenes serotype M1, UniProt P10520); experiment: viability-normalized secreted streptokinase activity reduction – plasminogen activation absorbance, OD405, dose response (AID 1914); assay type: functional, Streptococcus pyogenes M1 GAS;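 also: secreted streptokinase activity via plasminogen activation per viability signal from cell pellet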
T1 sequence (P10520 whole entry): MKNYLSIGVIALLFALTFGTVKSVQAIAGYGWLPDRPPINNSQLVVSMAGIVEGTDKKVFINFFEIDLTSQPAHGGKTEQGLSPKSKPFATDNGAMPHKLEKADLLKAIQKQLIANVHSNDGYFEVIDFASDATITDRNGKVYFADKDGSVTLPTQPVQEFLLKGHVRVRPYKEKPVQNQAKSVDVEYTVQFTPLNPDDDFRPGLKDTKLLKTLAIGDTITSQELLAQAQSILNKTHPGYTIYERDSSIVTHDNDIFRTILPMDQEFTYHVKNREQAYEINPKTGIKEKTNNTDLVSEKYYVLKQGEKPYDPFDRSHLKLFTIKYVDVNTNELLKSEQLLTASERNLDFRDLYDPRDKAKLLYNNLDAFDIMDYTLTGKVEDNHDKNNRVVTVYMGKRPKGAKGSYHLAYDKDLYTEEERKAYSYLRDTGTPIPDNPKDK

[6] = Luminescence Cell-Based Dose Confirmation HTS to Identify Inhibitors of Polyadenylation.; assay type: functional
[7] = test system: Streptococcus; experiment: GAS UMAA2166 growth inhibition – luminescence, BacTiterGlo, counter-screen for streptokinase expression inhibitor project, dose response (AID 1915); assay type: functional, organism-based;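 also: potency for reduction of bacterial viability or growth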
[8] = test system: Vero; experiment: cells; assay type: functional; conditions: Chlorocebus sabaeus
[9] = biological target: Peroxisome proliferator-activated receptor gamma/Nuclear receptor coactivator 2 (Homo sapiens, UniProt P37231); assay type: functional;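 also: agonist potency for raising coactivator recruitment to the receptor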
[10] = biological target: Peroxisome proliferator-activated receptor gamma/Nuclear receptor coactivator 1 (Homo sapiens, UniProt P37231); assay type: functional;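 also: agonist potency as compounds enhance coactivator SRC-1 recruitment to PPARgamma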
[11] = biological target: Peroxisome proliferator-activated receptor gamma/Nuclear receptor coactivator 3 (Homo sapiens, UniProt P37231); assay type: functional;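 also: agonist potency for raising coactivator recruitment to the receptor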
[12] = biological target: T2, Bcl-2-like protein 10 (Homo sapiens, UniProt Q9HD36); experiment: Concentration-response of Bcl-B inhibitors by biochemical FP with TR3 (AID 1243); assay type: functional
T2 sequence (Q9HD36 whole entry): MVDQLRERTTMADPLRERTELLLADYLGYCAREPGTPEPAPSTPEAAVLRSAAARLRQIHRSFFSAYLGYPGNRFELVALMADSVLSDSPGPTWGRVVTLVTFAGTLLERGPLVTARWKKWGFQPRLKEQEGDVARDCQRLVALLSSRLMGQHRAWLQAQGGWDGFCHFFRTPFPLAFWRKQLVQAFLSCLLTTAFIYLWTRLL

[13] = biological target: NS3 (Hepatitis C virus, UniProt A3EZJ3); experiment: PubChem AID 2173; set-up: species or system Hepacivirus hominis
[14] = Counterscreen for IDE inhibitors: Luminescence-based cell-based high throughput dose response assay to identify compounds that are cytotoxic to HEK cells. [Related pubchem assays: 434962 (Primary screen (IDE inhibitors in singlicate)), 449730 (Counterscreen (Cytotoxicity in triplicate)), 435028 (Confirmation (IDE inhibitors in triplicate)) …; assay type: functional; conditions: HEK293
[15] = biological target: T3, Insulin-degrading enzyme (Homo sapiens, UniProt P14735); experiment: Dose Response: Fluorescence polarization-based cell-based high throughput dose response assay for inhibitors of insulin-degrading enzyme (IDE). [Related pubchem assays: 434962 (Primary screen (IDE inhibitors in singlicate)), 449730 (Counterscreen (Cytotoxicity in triplicate)), 435028 (Confirmation (IDE inhibitors in triplicate)), 434984 (Summary …; assay type: functional
T3 sequence (P14735 whole entry): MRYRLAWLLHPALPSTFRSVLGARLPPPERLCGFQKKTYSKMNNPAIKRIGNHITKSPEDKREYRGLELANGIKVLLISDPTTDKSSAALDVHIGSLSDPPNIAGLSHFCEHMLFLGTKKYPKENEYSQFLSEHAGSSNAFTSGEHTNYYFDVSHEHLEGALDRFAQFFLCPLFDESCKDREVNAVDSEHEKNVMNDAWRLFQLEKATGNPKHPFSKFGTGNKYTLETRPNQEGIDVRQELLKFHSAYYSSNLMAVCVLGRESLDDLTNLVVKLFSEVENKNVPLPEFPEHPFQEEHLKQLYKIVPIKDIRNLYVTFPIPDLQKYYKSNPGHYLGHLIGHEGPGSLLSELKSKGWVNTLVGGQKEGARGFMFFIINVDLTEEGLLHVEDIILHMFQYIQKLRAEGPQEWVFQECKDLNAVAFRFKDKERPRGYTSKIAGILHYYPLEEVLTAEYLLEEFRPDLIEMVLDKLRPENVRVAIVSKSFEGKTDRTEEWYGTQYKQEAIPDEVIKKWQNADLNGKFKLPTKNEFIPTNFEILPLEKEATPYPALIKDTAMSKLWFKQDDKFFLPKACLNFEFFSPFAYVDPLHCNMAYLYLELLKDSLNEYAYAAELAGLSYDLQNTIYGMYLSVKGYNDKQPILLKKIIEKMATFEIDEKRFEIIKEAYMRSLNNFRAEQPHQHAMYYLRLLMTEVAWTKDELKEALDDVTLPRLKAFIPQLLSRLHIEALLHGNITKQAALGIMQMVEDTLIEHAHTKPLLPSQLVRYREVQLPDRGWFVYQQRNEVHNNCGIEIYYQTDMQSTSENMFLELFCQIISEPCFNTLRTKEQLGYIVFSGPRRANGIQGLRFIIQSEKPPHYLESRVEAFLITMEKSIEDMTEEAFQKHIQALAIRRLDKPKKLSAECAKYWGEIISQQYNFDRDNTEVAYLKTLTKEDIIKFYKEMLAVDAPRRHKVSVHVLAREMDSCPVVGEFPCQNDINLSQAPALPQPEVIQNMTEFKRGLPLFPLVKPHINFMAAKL

[16] = biological target: Cytochrome P450 2C19 (Homo sapiens, UniProt P33261); experiment: Cytochrome panel assay with activity outcomes. Panel member name: p450-cyp2c19 Compounds with AC50 equal or less than 10 uM are considered active; assay type: functional; conditions: read-out: AC50
[17] = biological target: Cytochrome P450 2D6 (Homo sapiens, UniProt P10635);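 also: CYP2D6 member of a cytochrome P450 panel assay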
[18] = antiviral protection against BTV-induced cell death – arbovirus, BSR cells, confirmation (AID 1250); assay type: functional;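 also: protection from viral cytopathic effect measured as cell viability by ATP luminescence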
[19] = biological target: T4, Mucolipin-3 (Homo sapiens, UniProt Q8TDD5); experiment: Dose response cell-based high-throughput screening assay for agonists of the transient receptor potential channel ML3 (TRPML3). [Related pubchem assays: 1526, 1424, 1448 ]; assay type: functional
T4 sequence (Q8TDD5 whole entry): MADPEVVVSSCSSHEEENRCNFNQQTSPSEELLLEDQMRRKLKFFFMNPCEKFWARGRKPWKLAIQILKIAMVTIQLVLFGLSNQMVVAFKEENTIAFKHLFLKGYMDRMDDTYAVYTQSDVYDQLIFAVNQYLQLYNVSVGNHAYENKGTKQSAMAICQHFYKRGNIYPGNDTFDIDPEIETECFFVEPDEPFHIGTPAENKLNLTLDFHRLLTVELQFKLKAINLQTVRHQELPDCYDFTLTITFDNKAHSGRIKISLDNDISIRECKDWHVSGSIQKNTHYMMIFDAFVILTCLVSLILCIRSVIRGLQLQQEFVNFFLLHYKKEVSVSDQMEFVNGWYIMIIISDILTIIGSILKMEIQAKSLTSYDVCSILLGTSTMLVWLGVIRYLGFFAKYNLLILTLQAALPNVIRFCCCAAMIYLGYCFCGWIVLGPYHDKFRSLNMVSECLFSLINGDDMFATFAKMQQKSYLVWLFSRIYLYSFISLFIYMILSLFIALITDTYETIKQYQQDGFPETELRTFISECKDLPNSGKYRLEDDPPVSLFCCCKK

[20] = biological target: Ion channel NompC (Danio rerio, UniProt Q7T1G6); experiment: Fluorescence counterscreen assay for TRPML3 agonists: dose response cell-based high-throughput screening assay to identify agonists of the transient receptor potential channel N1 (TRPN1). [Related pubchem assays: 1526, 1424, 1448 ]; assay type: functional
[21] = biological target: T5, Leucine aminopeptidase (Plasmodium falciparum 3D7, UniProt Q8IL11); experiment: P. falciparum M17LAP inhibitors, primary screen, biochemical, fluorogenic H-Leu-NHMec substrate, 1536-well (AID 1619); assay type: functional
T5 sequence (Q8IL11 whole entry): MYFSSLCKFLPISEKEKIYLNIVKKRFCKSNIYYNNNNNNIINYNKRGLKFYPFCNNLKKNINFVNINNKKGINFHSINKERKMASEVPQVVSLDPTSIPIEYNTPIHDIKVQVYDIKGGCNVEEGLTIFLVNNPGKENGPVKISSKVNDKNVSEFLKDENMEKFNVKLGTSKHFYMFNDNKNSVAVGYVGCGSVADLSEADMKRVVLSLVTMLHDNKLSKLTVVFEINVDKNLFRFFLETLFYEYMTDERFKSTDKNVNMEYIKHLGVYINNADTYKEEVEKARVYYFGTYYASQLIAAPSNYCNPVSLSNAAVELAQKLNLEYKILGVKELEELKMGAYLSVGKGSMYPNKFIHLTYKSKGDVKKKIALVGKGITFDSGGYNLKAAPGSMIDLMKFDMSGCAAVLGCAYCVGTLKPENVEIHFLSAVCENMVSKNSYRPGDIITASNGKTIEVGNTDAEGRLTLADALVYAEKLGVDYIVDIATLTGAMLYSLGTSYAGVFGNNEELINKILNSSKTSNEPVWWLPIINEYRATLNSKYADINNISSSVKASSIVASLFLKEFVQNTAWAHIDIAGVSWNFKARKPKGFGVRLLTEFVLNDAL

[22] = biological target: T6, NADPH oxidase 1 (Homo sapiens, UniProt Q9Y5S8); assay type: functional, cell-based;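 also: Cell-based assay with luminescence read-out, IC50 derived from inhibitor dose-response curves; intracellular ROS from endogenous NOX1 in intact HT29 colon cancer cells; potency of inhibitors that lower the ROS luminescence signal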
T6 sequence (Q9Y5S8 whole entry): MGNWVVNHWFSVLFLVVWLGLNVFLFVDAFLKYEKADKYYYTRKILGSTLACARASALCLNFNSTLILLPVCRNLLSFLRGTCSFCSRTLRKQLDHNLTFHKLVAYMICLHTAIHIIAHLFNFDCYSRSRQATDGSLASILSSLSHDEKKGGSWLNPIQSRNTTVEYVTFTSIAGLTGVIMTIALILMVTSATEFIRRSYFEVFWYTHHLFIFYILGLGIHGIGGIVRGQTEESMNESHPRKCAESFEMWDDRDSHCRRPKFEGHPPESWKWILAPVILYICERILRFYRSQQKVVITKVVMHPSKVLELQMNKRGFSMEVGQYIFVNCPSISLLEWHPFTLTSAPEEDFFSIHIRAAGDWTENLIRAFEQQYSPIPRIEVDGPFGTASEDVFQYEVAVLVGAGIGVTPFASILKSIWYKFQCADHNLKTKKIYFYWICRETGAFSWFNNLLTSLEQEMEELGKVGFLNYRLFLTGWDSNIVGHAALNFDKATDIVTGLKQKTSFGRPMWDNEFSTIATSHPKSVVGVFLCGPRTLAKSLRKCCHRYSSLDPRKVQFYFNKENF

Chain of Peroxisome proliferator-activated receptor gamma/Nuclear receptor coactivator 1 (P37231 whole entry): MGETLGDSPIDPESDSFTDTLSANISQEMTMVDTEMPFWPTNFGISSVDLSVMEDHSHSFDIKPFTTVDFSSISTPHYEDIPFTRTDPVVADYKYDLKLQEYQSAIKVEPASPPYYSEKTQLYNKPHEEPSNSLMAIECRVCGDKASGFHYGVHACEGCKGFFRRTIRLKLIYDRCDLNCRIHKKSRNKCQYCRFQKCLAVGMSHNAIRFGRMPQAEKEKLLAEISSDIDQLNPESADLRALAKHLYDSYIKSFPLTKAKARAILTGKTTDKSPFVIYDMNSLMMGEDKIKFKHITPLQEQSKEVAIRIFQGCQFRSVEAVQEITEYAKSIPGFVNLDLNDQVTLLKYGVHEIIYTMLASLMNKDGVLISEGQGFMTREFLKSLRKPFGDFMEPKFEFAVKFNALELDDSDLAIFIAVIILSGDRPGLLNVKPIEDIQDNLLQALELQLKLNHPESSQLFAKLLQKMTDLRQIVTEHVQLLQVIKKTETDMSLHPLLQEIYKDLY
Chain of Peroxisome proliferator-activated receptor gamma/Nuclear receptor coactivator 1 (Q15788 whole entry, further chain): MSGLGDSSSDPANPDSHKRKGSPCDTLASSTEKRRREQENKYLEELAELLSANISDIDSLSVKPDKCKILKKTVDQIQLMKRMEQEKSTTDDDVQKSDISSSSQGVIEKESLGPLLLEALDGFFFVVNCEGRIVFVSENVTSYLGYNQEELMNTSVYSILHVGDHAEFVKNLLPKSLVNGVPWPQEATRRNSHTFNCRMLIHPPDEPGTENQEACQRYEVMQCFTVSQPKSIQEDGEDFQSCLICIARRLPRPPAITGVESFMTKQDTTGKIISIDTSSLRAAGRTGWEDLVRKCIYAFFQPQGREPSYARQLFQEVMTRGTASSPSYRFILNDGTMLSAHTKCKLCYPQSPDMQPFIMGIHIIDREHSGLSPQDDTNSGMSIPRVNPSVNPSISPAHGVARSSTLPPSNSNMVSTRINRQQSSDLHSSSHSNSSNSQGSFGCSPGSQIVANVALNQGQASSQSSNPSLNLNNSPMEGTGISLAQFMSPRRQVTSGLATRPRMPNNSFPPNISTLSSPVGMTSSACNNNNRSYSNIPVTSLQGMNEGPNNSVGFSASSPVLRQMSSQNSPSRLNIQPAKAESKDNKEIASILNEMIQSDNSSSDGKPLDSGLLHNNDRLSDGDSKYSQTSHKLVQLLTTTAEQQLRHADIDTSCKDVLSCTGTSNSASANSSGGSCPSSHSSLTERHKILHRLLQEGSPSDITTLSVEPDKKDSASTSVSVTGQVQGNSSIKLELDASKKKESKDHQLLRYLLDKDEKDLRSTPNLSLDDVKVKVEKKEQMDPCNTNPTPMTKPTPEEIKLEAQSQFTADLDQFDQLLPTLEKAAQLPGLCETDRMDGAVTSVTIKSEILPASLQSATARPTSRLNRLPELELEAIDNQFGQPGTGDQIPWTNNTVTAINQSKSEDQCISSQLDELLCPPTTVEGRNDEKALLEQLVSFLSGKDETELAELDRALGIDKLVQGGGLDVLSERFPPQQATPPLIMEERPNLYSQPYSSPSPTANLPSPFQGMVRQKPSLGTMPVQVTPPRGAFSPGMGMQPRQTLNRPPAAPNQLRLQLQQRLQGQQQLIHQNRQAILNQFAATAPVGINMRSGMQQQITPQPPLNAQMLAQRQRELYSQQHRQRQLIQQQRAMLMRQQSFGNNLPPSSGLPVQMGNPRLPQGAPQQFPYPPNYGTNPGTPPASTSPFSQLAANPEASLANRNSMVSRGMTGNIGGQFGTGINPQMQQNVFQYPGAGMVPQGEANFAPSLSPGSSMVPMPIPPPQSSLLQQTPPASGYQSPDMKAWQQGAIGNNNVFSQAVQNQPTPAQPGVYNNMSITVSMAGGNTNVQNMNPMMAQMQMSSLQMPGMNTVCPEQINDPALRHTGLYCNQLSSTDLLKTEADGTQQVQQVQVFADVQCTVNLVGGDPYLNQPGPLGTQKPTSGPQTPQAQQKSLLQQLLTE
Chain of Peroxisome proliferator-activated receptor gamma/Nuclear receptor coactivator 3 (P37231 whole entry): as the sequence (P37231 whole entry) above
Chain of Peroxisome proliferator-activated receptor gamma/Nuclear receptor coactivator 3 (Q9Y6Q9 whole entry, further chain): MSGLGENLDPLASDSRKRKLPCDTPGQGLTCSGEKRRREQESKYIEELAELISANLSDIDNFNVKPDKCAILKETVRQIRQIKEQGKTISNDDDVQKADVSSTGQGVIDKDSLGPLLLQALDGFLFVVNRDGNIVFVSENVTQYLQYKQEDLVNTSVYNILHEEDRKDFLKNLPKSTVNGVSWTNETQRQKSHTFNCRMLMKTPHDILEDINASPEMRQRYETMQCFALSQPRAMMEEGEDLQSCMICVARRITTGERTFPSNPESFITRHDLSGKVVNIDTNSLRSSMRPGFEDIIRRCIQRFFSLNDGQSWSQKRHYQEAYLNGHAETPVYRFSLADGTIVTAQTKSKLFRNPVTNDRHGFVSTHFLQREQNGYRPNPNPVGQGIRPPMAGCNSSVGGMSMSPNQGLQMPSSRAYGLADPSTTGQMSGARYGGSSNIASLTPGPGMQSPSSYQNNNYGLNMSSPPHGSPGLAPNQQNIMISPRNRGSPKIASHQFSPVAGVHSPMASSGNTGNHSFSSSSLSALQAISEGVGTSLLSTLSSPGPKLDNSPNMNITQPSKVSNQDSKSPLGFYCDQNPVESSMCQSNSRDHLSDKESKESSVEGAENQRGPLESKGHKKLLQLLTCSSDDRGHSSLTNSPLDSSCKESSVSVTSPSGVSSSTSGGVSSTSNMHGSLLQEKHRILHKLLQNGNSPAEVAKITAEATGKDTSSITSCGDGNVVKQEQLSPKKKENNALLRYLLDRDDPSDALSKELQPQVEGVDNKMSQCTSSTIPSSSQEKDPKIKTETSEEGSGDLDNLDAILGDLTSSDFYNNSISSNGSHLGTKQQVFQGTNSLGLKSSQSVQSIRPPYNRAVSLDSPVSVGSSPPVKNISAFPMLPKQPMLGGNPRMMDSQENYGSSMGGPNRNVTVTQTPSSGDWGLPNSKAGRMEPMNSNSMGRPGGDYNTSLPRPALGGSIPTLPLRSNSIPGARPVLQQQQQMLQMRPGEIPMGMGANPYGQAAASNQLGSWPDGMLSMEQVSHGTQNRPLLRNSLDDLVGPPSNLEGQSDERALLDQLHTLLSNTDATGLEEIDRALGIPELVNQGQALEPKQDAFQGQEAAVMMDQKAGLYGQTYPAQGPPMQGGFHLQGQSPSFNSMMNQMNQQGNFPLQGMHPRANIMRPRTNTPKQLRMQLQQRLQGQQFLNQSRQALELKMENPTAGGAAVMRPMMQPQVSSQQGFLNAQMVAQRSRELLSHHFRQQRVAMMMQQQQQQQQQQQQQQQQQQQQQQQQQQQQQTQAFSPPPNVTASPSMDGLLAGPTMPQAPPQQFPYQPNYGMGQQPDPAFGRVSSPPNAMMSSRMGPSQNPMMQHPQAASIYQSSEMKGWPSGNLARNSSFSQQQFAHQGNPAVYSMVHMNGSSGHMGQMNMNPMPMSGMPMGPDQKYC
Chain of Cytochrome P450 2C19 (P33261 whole entry): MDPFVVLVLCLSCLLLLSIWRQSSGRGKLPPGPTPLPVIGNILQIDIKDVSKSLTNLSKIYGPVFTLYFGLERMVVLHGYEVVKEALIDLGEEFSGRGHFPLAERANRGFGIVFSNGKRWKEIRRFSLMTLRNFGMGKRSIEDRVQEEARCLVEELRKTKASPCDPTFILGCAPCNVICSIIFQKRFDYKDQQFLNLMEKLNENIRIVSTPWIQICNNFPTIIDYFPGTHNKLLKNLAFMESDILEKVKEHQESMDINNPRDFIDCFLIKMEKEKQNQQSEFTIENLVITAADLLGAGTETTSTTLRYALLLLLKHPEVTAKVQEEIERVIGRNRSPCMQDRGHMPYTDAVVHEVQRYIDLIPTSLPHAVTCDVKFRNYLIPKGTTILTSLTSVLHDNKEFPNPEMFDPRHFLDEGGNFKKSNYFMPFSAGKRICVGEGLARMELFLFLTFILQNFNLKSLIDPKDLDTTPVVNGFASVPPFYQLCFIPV
Chain of Cytochrome P450 2D6 (P10635 whole entry): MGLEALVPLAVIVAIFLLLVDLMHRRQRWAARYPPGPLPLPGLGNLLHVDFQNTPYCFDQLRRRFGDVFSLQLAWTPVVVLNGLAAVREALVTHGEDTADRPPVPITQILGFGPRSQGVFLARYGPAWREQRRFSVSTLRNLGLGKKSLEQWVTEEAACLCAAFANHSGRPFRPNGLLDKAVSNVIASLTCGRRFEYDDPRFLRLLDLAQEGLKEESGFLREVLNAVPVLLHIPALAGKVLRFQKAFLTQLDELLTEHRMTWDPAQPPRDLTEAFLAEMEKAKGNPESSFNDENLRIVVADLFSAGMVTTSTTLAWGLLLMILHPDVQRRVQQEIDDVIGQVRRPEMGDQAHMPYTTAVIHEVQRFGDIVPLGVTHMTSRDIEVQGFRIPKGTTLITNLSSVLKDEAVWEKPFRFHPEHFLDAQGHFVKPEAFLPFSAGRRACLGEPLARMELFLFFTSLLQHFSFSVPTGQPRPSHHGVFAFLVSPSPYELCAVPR

Cc1c(C(=O)Nc2nonc2-c2ccc(F)cc2)oc2ccc(F)cc12
EC50 [1]: > 120 µM (not active) | EC50 [2]: 3.52 µM (active) | EC50 [3]: 12.9 µM (active) | EC50 [4]: > 120 µM (not active) | EC50 [5]: 27.7 µM (active) | EC50 [6]: > 120 µM (not active) | EC50 [7]: > 150 µM (not active) | CC50 [8]: 6.89 µM (active)

COc1ccc(C(N)=NOC(=O)CN(C)S(=O)(=O)c2ccc(C)cc2)cc1
EC50 [9]: > 79.4 µM (not active) | EC50 [10]: > 79.4 µM (not active) | EC50 [11]: > 79.4 µM (not active)

O=C(O)c1cccc2c1NC(c1ccc([N+](=O)[O-])cc1)C1CC=CC21 (stereo not drawn)
EC50 [12]: 5.41 µM (active)

O=C1C(=Cc2cn(Cc3ccc(Cl)cc3)c3ccccc23)C(=O)c2ccccc21
EC50 [12]: 14.4 µM (active)

O=C(O)c1cccc(-n2c(/C=C/c3ccccc3)nc3ccccc3c2=O)c1
IC50 [13]: 12.3 µM (not active)

CC(=O)c1cc(NC(=O)c2ccccc2)c(=O)oc1/C=C/N(C)C
IC50 [14]: > 55.7 µM (not active) | IC50 [15]: 8.93 µM (active) | AC50 [16]: 39.8 µM (inconclusive) | AC50 [17]: 0.178 µM (inconclusive)

COc1ccc2oc3cc(C)[n+]([O-])c(-c4ccc(Cl)cc4)c3c2c1
IC50 [18]: > 100 µM (active)

COC(=O)c1sccc1NC(=O)c1ccc(Br)s1
EC50 [9]: < 8.82 µM (active) | EC50 [10]: 8.67 µM (active) | EC50 [11]: 12.2 µM (not active)

Cc1ccc(S(=O)(=O)N2CCC(=O)N(C(COCc3ccc(C(F)(F)F)cc3)C(C)C)CC2)cc1 (stereo not drawn)
EC50 [19]: 3.92 µM (active) | EC50 [20]: > 29.9 µM (not active)

O=C(/C=C/c1ccco1)Nc1cc(Cl)ccc1C(=O)O
IC50 [21]: 74.4 µM (active) | IC50 [18]: 36.7 µM (active)

c1ccc(-c2nc(-c3ccccc3)c(-c3ccccc3)[nH]2)cc1
IC50 [22]: > 17 µM (not active)

COc1ccc2c(c1)Nc1ccccc1S2
IC50 [22]: 0.913 µM (active)
